Values joined by “and” are separate entries in the source; they are usually repeats but may differ in a detail not shown here. Equal entries are not always repeated.
Tests used:
[1] = system: Jurkat E6.1 cells; test: cell viability, CTG assay, Jurkat E6.1; format: cell-based, human; conditions: for viability signal, raw values: Figure 6e
Text: (§1) Data are the mean ± stdev of 3 biological replicates. […] Data are the mean ± stdev of 3 biological replicates.
Bjørn Tore Gjertsen (University of Bergen, Norway). […] The cell lines were not authenticated.

[2] = system: Jurkat E6.1 cells; test: intracellular ROS, ROS-red staining and flow cytometry, Jurkat E6.1; format: cell-based, human; parameters: ROS Negative Cells / ROS Negative Cells (Figure S9 a) / ROS Negative Cells (Figure S9c): unit not given here; conditions: AA 20 µM; rep1, rep2
Method: as §1
(§2) Rather, when combined with AVX420, exogenous AA augmented cell death (Fig. 6e). […] The response occurred within 1 h, peaked at 8–12 h, and preceded the loss of cell viability (Fig. S9a, b).
(§3) After treatment, cells were stained with cellular ROS Assay Kit (Cat. No. ab186029; Abcam, Cambridge, United Kingdom) following the manufacturer’s instructions, and ROS-positive cells were quantified by flow cytometry using either the NovoCyte flow cytometer, and Novoexpress Software v1.5.0 from Agilent Technologies (Santa Clara, USA) or the CytoFLEX flow cytometer and CytExpert analysis software v 2.5 from Beckman Coulter (California, United States). An example showing the gating strategy used to assess ROS-Red staining is found in Fig. S9d.

[3] = system: CCRF-CEM cells; test: cell viability, CTG assay, CCRF-CEM; conditions: for viability signal, raw values: Figure 6e
Method: Data are the mean ± stdev of 3 biological replicates. c Viability of healthy T-cells measured by propidium iodide (PI) exclusion. Data are the mean ± stdev of 8 biological replicates for 1–16 µM AVX420, 5 for 32 µM AVX420 and 2 for 0.5 µM Staurosporine (Stau). d Cell viability measured by CTG assay in cells preincubated with 2.5 mM glutathione (GSH) or 2.5 mM N-acetyl cysteine (NAC) for 30 min before addition of 0.5 or 1 µM AVX420, 0.06 µM RSL-3, or 0.06 µM ML-210 for 24 h. Data are the mean ± stdev of 3 biological replicates. P-values were determined by one-way ANOVA with Dunnett’s correction for multiple testing and **** indicates P < 0.0001. e Cell viability measured by CTG assay. CCRF-CEM or Jurkat cells were co-treated with 0.5 µM AVX420 and either arachidonic acid (AA) at concentrations ranging from 1 to 100 µM or a mixture of 9 eicosanoids: 6-keto prostaglandin F1α, Thromboxane B2, prostaglandin F2α, prostaglandin E2, prostaglandin D2, 12(S)-HHTrE, 15(S)-HETE,12(S)-HETE, 5(S)-HETE at a final concentration of 2 ng/mL each (EIC-mix) for 24 h. Data are the mean ± stdev of 3 biological replicates. P-values were determined by two-way ANOVA with Sidak’s correction for multiple comparisons. f Proportion of intracellular ROS-positive cells measured by ROS-red staining and flow cytometry. Cells were treated with indicated concentrations of AVX420 (µM), 1 mM H2O2, 1 µM RSL-3, or 1 µM doxorubicin (dox) for 4 h. Data are the mean ± stdev of 3 biological replicates. g Intracellular ROS measurements in CCRF-CEM cells treated with AVX420 (0.5 µM), AVX002 (8 µM), or AACOCF3 (8 µM) for 4 h.
All cell lines were confirmed to be free of mycoplasma contamination. The cell lines were not authenticated. MV-4-11 were cultured in Iscove’s Modified Dulbecco’s Medium (Sigma, I3390). CCRF-CEM, Jurkat E6.1, and HL-60 cells were cultured in RPMI 1640 Medium RPMI-1640 medium (Sigma, R5886).

[4] = system: whole blood; test: eicosanoid release from LPS-stimulated whole blood; format: cell-based, human; parameters: LTB4 / 5-HETE / 11,12-EET / 12-HETE: unit not given here; conditions: for 15-HETE level, whole blood / PGE2 level, whole blood / TxB2 level, whole blood: individual replicate
Text: In whole blood, bacterial lipopolysaccharide (LPS) stimulated the release of PGE2, thromboxane B2 (TXB2), and 15-hydroxyeicosatetraenoic acid (HETE). […] The levels of leukotriene B4 (LTB4), 12-HETE, 5-HETE and 11,12-epoxyeicosatrienoic acid (EET) were not affected by LPS stimulation but increased when exogenous AA was included, irrespective of the presence of GK420 (Fig. S1a).
Fig. 3 Ex vivo suppression of eicosanoid production by GK420. a Eicosanoid levels (pmol/mL) in the plasma of whole blood pretreated with vehicle (DMSO), 3, 10 or 30 µM GK420,) 10 µM arachidonyl trifluoromethyl ketone (ATK), or 1 μM indomethacin (Indo) before stimulation with 1 µg/mL LPS for 24 h. […] All box and whisker plots show the mean (center line), stdev (box), and min and max values (whiskers) from 4 biological replicates. P-values were determined using RM-one way ANOVA with Dunnett’s correction for multiple comparisons.
Aliquots of 0.4 mL of heparinized whole blood were mixed with 1.6 mL of serum-free RPMI cultivation medium with- or without indomethacin (# I7378, Sigma-Aldrich), GK420, or arachidonyl trifluoromethyl ketone (ATK) (Cayman #62120), prior to the addition of lipopolysaccharides (LPS) (1 μg/mL) to activate the cPLA2α enzyme (LPS was from E. coli 026:B6 γ-irradiated, #L2654, Sigma-Aldrich). Exogenous arachidonic acid (5–10 µM) (#3555, Sigma-Aldrich) was added after 23.5 h, for the final 30 mins of the 24 h stimulation. Following treatment (24 h, 37 °C, 5% CO2), the diluted blood was centrifuged (5992 × g for 10 min at 4 °C) to isolate the plasma from the cell fraction. Plasma samples were stored at −80 °C until analysis. Samples were analyzed at the Lipid Maps Consortium, UCSD according to the standard methods. 200 µL of sample was subjected to solid phase extraction of the eicosanoids using the StrataX solid phase extraction columns from Phenomenex and analyzed by UHPLC-MS/MS using full standards mix.

[5] = system: CCRF-CEM cells; test: intracellular ROS, ROS-red staining and flow cytometry, CCRF-CEM; format: cell-based, human; conditions: CCRF-CEM, 8 µM, 4 h
Method: as §1, §2, §3
Figure S9. Intracellular ROS accumulation and cell death. a. Time dependency of the in-crease in iROS following treatment with AVX420 in CCRF-CEM cells as measured by ROS-red stain-ing. Data are the mean ±stdev from ≥2 biological replicates b. […]
±stdev of ≥2 biological replicates c. intracellular ROS measurements in CCRF-CEM cells treated with 0.5 µM AVX420 in the presence of 20 µM arachidonic acid (AA) or 5 µM liproxstatin (Lip) for 4 hours. Data are the mean ± stdev of 2 biological replicates. d. […]
analysis of ROS Red staining by flow cytometry. (i) Gating of live cells using FSC-H versus SSC-H.
(ii) Gating based on ROS Deep Red staining under control conditions and after treatment with (iii) […]
(1 picture or pasted object on this page, not shown here)

[6] = system: isolated human PBMCs; test: eicosanoid release from A23187-stimulated PBMCs (ELISA); format: cell-based; parameters: 6-Keto PGF1a / 12-HETE: unit not given here; conditions: 5 µM; for LTB4 level, PBMCs / PGE2 level, PBMCs / TxB2 level, PBMCs: A23187, individual replicate
Method: In PBMCs, the calcium ionophore A23187 stimulated the release of PGE2, TXB2, LTB4, 6-keto prostaglandin F1α (PGF1α), and 12-HETE.
PBMCs were isolated from buffy coats using Lymphoprep as described by the manufacturer ([…] Technologies, Vancouver, Canada). Red blood cells were lysed and removed using RBC lysis buffer (Roche, Basel, Switzerland) and the remaining cells were resuspended in 10 mL of RPMI-1640 supplemented with 5% FBS. The TC20 automated cell counter (BIO-RAD, Hercules, California, USA) was used to count the number of cells and check the viability by staining with trypan blue (0.4%) (NanoEnTek, Waltham, MA, USA). For experiments, 5 × 10^5 cells were seeded in 0.5 mL in 24 well plates with RPMI medium supplemented with 5% FBS, 0.3 mg/mL glutamine, and 0.1 mg/mL gentamicin. Cells were preincubated with inhibitors for 2 h before incubating with 30 µM Ca^2+ ionophore A23187 for 15 min to activate cPLA2α. After incubation, the supernatant was obtained by centrifugation at 5992 × g for 10 min at 4° and stored at −80 °C until assayed for PGE2, LTB4, TxB2, 6-Keto PGF1α, and 12S-HETE using enzyme-linked immunosorbent assays (ELISAs) (Cayman #514435, Cayman #10009292, Cayman #501020, Cayman #15210, and Enzo Lifesciences #ADI-900-050). After an overnight hybridization, the enzymatic conversion of substrate was read at OD420 nm using a Cytation 5 multimode platereader (Biotek Instruments, Winooski, VT, USA). Standard curves fit using 4-parameter logistic regression in myassays.com were used to calculate eicosanoid concentrations.

## CCCCC/C=C\C/C=C\C/C=C\C/C=C\CCCC(=O)O [AA]
[1]; Jurkat E6.1, AA-1, CTRL (no AVX420)
  viability signal, raw values: 945477,333333333 and 910583,466666667 and 794162,5
[1]; Jurkat E6.1, AA-5, CTRL (no AVX420)
  viability signal, raw values: 896908,333333333 and 842500,133333333 and 777643
[1]; Jurkat E6.1, AA-10, CTRL (no AVX420)
  viability signal, raw values: 858625 and 837920,133333333 and 768078,5
[1]; Jurkat E6.1, AA-20, CTRL (no AVX420)
  viability signal, raw values: 835050 and 861305,466666667 and 719180
[2]
  ROS Negative Cells (Figure S9c): 97 and 95
  ROS Positive Cells (Figure S9c): 3 and 5
[3]; AA-1, CTRL (no AVX420)
  viability signal, raw values: 846644,033333333 and 824265,666666667 and 673546,5
[3]; AA-5, CTRL (no AVX420)
  viability signal, raw values: 927085,7 and 753657,333333333 and 655816,5
[3]; AA-10, CTRL (no AVX420)
  viability signal, raw values: 862846,7 and 802148,333333333 and 667006,5
[3]; AA-20, CTRL (no AVX420)
  viability signal, raw values: 903682,366666667 and 709873,666666667 and 638998,5
[3]; AA-100, CTRL (no AVX420)
  viability signal, raw values: 925589,000333333 and 600588 and 592437,5

## CCCCC/C=C\C/C=C\C/C=C\C/C=C\CCCC(=O)C(F)(F)F [ATK, arachidonyl trifluoromethyl ketone]
[4]; 10 uM + LPS + AA
  5-HETE: 62.15 and 48.84 and 43.16 and 63.64
  11,12-EET: 12.43 and 12.11 and 11.23 and 10.37
  12-HETE: 131.5 and 102.1 and 99.1 and 71.1
  LTB4: 0.7 and 0.6 and 0.8 and 0.5
  15-HETE level, whole blood: 74.26 pmol/mL and 68.85 pmol/mL and 74.36 pmol/mL and 63.52 pmol/mL
  PGE2 level, whole blood: 16.3 pmol/mL and 19.3 pmol/mL and 11.3 pmol/mL and 11.2 pmol/mL
  TxB2 level, whole blood: 13.1 pmol/mL and 35.6 pmol/mL and 22.8 pmol/mL and 21.1 pmol/mL
[4]; 10 uM + LPS
  15-HETE level, whole blood: 0.26 pmol/mL and 1.13 pmol/mL and 0.31 pmol/mL and 0.48 pmol/mL
  PGE2 level, whole blood: 0.1 pmol/mL and 2.4 pmol/mL and 0.5 pmol/mL and 1.1 pmol/mL
  TxB2 level, whole blood: 1.2 pmol/mL and 9.9 pmol/mL and 2.1 pmol/mL and 3.4 pmol/mL
[5]
  intracellular ROS (iROS): increased iROS

## Cc1ccc(-c2cc(C(F)(F)F)nn2-c2ccc(S(N)(=O)=O)cc2)cc1 [Celecoxib, celecoxib, reference compound]
[6]
  LTB4 level, PBMCs: 120.7 pg/mL and 156.9 pg/mL and 348.2 pg/mL and 111.7 pg/mL
  PGE2 level, PBMCs: 146.1 pg/mL and 36.8 pg/mL and 25.1 pg/mL and 59.9 pg/mL
  TxB2 level, PBMCs: 2358.3 pg/mL and 690.2 pg/mL and 212.9 pg/mL and 1753.1 pg/mL

## COc1ccc2c(c1)c(CC(=O)O)c(C)n2C(=O)c1ccc(Cl)cc1 [Indo, indomethacin]
[4]; 1 uM + LPS + AA
  5-HETE: 68.97 and 43.93 and 45.12 and 44.17
  11,12-EET: 9.56 and 11.87 and 10.26 and 11.6
  12-HETE: 64.2 and 109.5 and 89.5 and 60.3
  LTB4: 0.4 and 0.7 and 0.5
  15-HETE level, whole blood: 61.7 pmol/mL and 75.64 pmol/mL and 71.47 pmol/mL and 74.74 pmol/mL
  PGE2 level, whole blood: 11.3 pmol/mL and 12.8 pmol/mL and 10.1 pmol/mL and 11.1 pmol/mL
  TxB2 level, whole blood: 1.2 pmol/ml (2×) and 1.6 pmol/ml and 1 pmol/ml
[4]; 1 uM + LPS
  15-HETE level, whole blood: 0.16 pmol/mL and 0.77 pmol/mL and 0.18 pmol/mL and 0.15 pmol/mL
  PGE2 level, whole blood: 0.05 pmol/mL
  TxB2 level, whole blood: 0.05 pmol/ml (3×) and 0.1 pmol/ml
[4]; whole blood, LPS, in the absence and presence of exogenous free AA
  production of PGE2 and TXB2: suppressed the production

## CC(Cc1ccc(O)c(O)c1)C(C)Cc1ccc(O)c(O)c1 (stereo not shown) [NDGA, nordihydroguaiaretic acid, reference compound]
[6]
  LTB4 level, PBMCs: 125.8 pg/mL and 134 pg/mL and 192.1 pg/mL and 116.5 pg/mL
  PGE2 level, PBMCs: 307.5 pg/mL and 191.3 pg/mL and 70.7 pg/mL and 334.8 pg/mL
  TxB2 level, PBMCs: 14617 pg/mL and 11007 pg/mL and 1627.4 pg/mL and 14685.3 pg/mL
[6]; A23187 stimulated
  6-Keto PGF1a: 23.4 and 36.1
  12-HETE: 69724.1 and 75249.5 and 44247.8

## COc1ccc2cc([C@H](C)C(=O)O)ccc2c1 [Naproxen, naproxen, reference compound]
[6]
  LTB4 level, PBMCs: 580.9 pg/mL and 678 pg/mL and 1105.1 pg/mL and 392.2 pg/mL
  PGE2 level, PBMCs: 99.6 pg/mL and 53.1 pg/mL and 27.7 pg/mL and 49.6 pg/mL
  TxB2 level, PBMCs: 2252.6 pg/mL and 716 pg/mL and 281.3 pg/mL and 1975.1 pg/mL

## COC(=O)c1ccc([C@@H]2c3[nH]c4ccccc4c3C[C@@H](C(=O)OC)N2C(=O)CCl)cc1 [RSL-3]
[1]; Jurkat cells, 0.06 µM, VEH
  cell viability (Control = 100): 40 and 34 and 26
[3]; 0.06 µM, VEH
  cell viability (Control = 100): 29 and 32 and 36
